{"source": "patent US20210238257A1", "about": "“De Novo Formation of the Biliary System by Hepatocyte Transdifferentiation” (THE REGENTS OF THE UNIVERSITY OF CALIFORNIA, priority 2018, published 2021)", "system": "hepatocytes lacking RBPJ and HNF6", "test": "In vitro conversion assay: 3D culture of hepatocyte spheroids in collagen gels", "type": "cell-based, mouse", "conditions": "10 μM SB-431542 vs vehicle (DMSO)", "procedure": "Genomic DNA was isolated from cells using QIAamp DNA Micro Kit or DNeasy Blood & Tissue Kit (Qiagen). RNA was extracted using Trizol Reagent (Thermo Fisher Scientific) and purified by isopropanol precipitation (cells in collagen gel) or purified using RNAeasy Mini Kit (Qiagen) (liver tissue). Reverse transcription was performed using qScript cDNA Supermix (Quanta Biosciences). qPCR was performed using SYBR green reagent (Thermo Fisher Scientific) in a ViiA 7 system (Thermo Fisher Scientific). Reactions were performed in triplicate, and expression was normalized to an Rbpj (genotyping) or Gapdh (Glyceraldehyde-3-phosphate Dehydrogenase; gene expression) reference and quantified using the ΔΔCt method.\nIn vitro 3D culture of hepatocytes to induce biliary conversion was carried out as previously reported^21 with the following modifications. Hepatocytes were isolated from 8-10-week-old Rbpj^f/f;Hnf6^f/f mice injected with 1×10^12 vgs of AAV8-Ttr-Cre 2 weeks prior to delete RBPJ and HNF6. Hepatocytes were isolated by 2-step collagenase perfusion followed by purification through a Percoll gradient, all in the absence of serum. Cells were grown on Primaria plates for 6 days to form spheroids. Spheroids were cultured in collagen gels (Cultrex Rat Collagen I, Lower Viscosity, Trevigen) in the presence of 10 μM SB-431542 (Selleckchem) or vehicle (DMSO). The medium was changed every other day."}
{"smiles": "NC(=O)c1ccc(-c2nc(-c3ccc4c(c3)OCO4)c(-c3ccccn3)[nH]2)cc1", "note": "[SB-431542]", "values": [{"measurement": "biliary differentiation and morphogenesis of hepatocytes", "value": "blocks biliary differentiation and morphogenesis"}]}
